“Also recorded” adds a separate entry of the source. No end group written: not given here.
Tests used:
[1] = system: Bacteroides vulgatus ATCC 8482; assay: Broth microdilution antimicrobial assay; format: cell-based; details: B. vulgatus; microbroth dilution in mGAM, anaerobic, 37 °C, 24 h, OD600; CPP 0.01-100 µM
Procedure: (§1) Gut commensal microbial strains used in this study (Table 2) were purchased from […] (ATCC) and DSMZ, Germany. The growth and screening experiments were performed in modified Gifu Anaerobic Medium (mGAM) (HyServe GmbH and Co.) as all the strains could grow well in this media. mGAM was pre-reduced for a minimum of 1 day in the anaerobic chamber (Coy laboratory products Inc.) before use.
(§2) The antimicrobial effects of CPPs were determined by performing microbroth dilution method. The overnight cultures of the strains were diluted 100-fold in mGAM broth and 100 µL of the diluted cultured were distributed in the 96-well microplate. Next, 100 µL of CPPs in their respective concentrations were added to respective wells. Plates were incubated aerobically (Escherichia coli Nissle, Escherichia coli K12, and Saccharomyces boulardii) or anaerobically (rest of the strains) at 37 °C for 24 h with or without shaking, respectively. Reading of each plate was performed by measuring the optical density (OD) at 600 nm in a microplate reader (Synergy™ H1 BioTek). The final absorbance values were normalized and represented as values between 0 and 1 as a heat map, where 0 being full inhibition and 1 being no inhibition. The MIC was determined as the minimum concentration of the CPPs at which no significant growth of the strain was observed as compared to medium only (blank).

[2] = system: Latilactobacillus sakei ATCC 15521; assay: Broth microdilution antimicrobial assay; format: cell-based; details: microbroth dilution in mGAM, anaerobic, 37 °C, 24 h, OD600, CPP 0.01-100 µM
Procedure: as §1, §2

[3] = system: Lactobacillus gasseri DSM 20077; assay: Broth microdilution antimicrobial assay; format: cell-based; details: microbroth dilution in mGAM, anaerobic, 37 °C, 24 h, OD600, CPP 0.01-100 µM
Procedure: as §1, §2

[4] = system: Bifidobacterium longum ATCC 15697; assay: Broth microdilution antimicrobial assay; format: cell-based; details: microbroth dilution in mGAM, anaerobic, 37 °C, 24 h, OD600, CPP 0.01-100 µM
Procedure: as §1, §2

[5] = system: Escherichia coli K12 MG 1655; assay: Broth microdilution antimicrobial assay; format: cell-based; details: microbroth dilution in mGAM, aerobic with shaking, 37 °C, 24 h, OD600, CPP 0.01-100 µM
Procedure: as §1, §2

[6] = system: Bacteroides thetaiotaomicron DSM 2079; assay: Broth microdilution antimicrobial assay; format: cell-based; details: B. thetaiotaomicron; microbroth dilution in mGAM, anaerobic, 37 °C, 24 h, OD600; CPP 0.01-100 µM
Procedure: as §1, §2

[7] = system: Clostridium bolteae DSM 29485; assay: Broth microdilution antimicrobial assay; format: cell-based; details: microbroth dilution in mGAM, anaerobic, 37 °C, 24 h, OD600, CPP 0.01-100 µM
Procedure: as §1, §2

[8] = system: Bifidobacterium adolescentis DSM 20083; assay: Broth microdilution antimicrobial assay; format: cell-based; details: microbroth dilution in mGAM, anaerobic, 37 °C, 24 h, OD600, CPP 0.01-100 µM
Procedure: as §1, §2

[9] = system: Escherichia coli Nissle 1917 (Mutaflor); assay: Broth microdilution antimicrobial assay; format: cell-based; details: microbroth dilution in mGAM, aerobic with shaking, 37 °C, 24 h, OD600, CPP 0.01-100 µM
Procedure: as §1, §2

Caco-2 monolayers [10] = details: cited from earlier work
Procedure: (§3) In the present work we systematically screened for effective CPPs that promote intestinal permeation through paracellular route and have negligible or no harmful effects against human epithelial cells and gut microbial strains. […] The results from the cytotoxicity and cell viability assays were in concordance except for RRL helix and PN159 at 5 µM. This minor difference most likely has to do with the sensitivity of the assay. The reducing capacity of the cells (as measured by AlamarBlue) is not the same as membrane integrity (as measured by Cytotoxic Red).

Caco-2 cells [11] = format: cell-based; details: CPP 1, 5, 10, 50, 100 µM in DMEM, 1 h treatment (legend; method says 2 h), 37°C, Incucyte imaging, n = 2
Procedure: Caco-2 cells were seeded (6 × 10^3 cells/well) in Corning™ Costar™ 96-Well, Cell Culture-Treated, Flat-Bottom Microplate and grown at 37°C with 5% CO2 until reaching confluence. […] Fluorescence was measured with microplate reader Synergy™ H1 BioTek; (excitation wavelength: 560 nm, emission wavelength: 590 nm) and a curve of Relative Fluorescence Units (RFU) against different concentrations of CPPs was plotted.
[…] The cells were then imaged using the Incucyte® Live-Cell analysis instrument. Cytotox Red dye dilution: The dye was diluted to a stock concentration of 100 µM in PBS. This was further diluted in full media to yield a final concentration of 250 nM before adding to the cells.

Caco-2 cells [12] = assay: AlamarBlue cell viability assay; format: cell-based, human; details: for Cell viability (AlamarBlue, % live cells vs control): CPP 5 µM, 1 h treatment (legend; method says 2 h), 37°C, fluorescence 560/590 nm, n = 3; for Cell toxicity and viability: CPP 50 µM, Cytotox Red and AlamarBlue assays
Procedure: Caco-2 cells were seeded (6 × 10^3 cells/well) in Corning™ Costar™ 96-Well, Cell Culture-Treated, Flat-Bottom Microplate and grown at 37°C with 5% CO2 until reaching confluence. For alamarBlue cell viability staining, cells were exposed to treatments (DMEM + AlamarBlue (10 µL) + CPPs) at different concentrations and incubated for 2 h at 37°C with 5% CO2. Fluorescence was measured with microplate reader Synergy™ H1 BioTek; (excitation wavelength: 560 nm, emission wavelength: 590 nm) and a curve of Relative Fluorescence Units (RFU) against different concentrations of CPPs was plotted.

[13] = system: 10 commensal gut microbial strains; assay: Broth microdilution antimicrobial assay, panel summary; format: cell-based; details: range over the strains that were totally inhibited; mGAM, 37 °C, 24 h
Procedure: as §1, §2

Caco-2 monolayers [14] = assay: FITC-dextran translocation assay; format: cell-based, human; details: for Paracellular permeability of FITC-dextran (Papp A-B): Caco-2 monolayers 21 days, each CPP at a concentration without cytotoxicity, apical, 1 h, 37 °C, pH 7.4, then 1 mg/ml FITC-dextran 4 for 30 min, fluorescence, n = 3; for Paracellular permeability (TEER and FITC-dextran assays collectively) / FITC-dextran translocation: Caco-2 monolayers; for Paracellular permeability (TEER and FITC-dextran assays collectively): in the concentrations tested; for FITC-dextran translocation: CPP 100 µM
Procedure: (§4) For Fluorescein Isothiocyanate (FITC)-Dextran permeability experiments, Caco-2 monolayers differentiated for 21 days were transferred to 12-well plates containing 1.5 ml phenol red free DMEM media (pH 7.4) in the basal compartments. For the treatment, medium in the apical compartment was replaced by 0.5 ml phenol red free DMEM medium containing different concentrations of CPPs, and the plates were incubated at 37 °C for 1 h. Post treatment, inserts were transferred to a new 12-well plate containing 1.5 ml fresh phenol red free DMEM and the apical medium was replaced by medium containing 1 mg/ml FITC-dextran 4 (Sigma-Aldrich). The incubation with the permeability marker lasted for 30 min. Samples were collected from the basolateral compartments post incubation and fluorescence was measured using multi-well fluorescent plate reader (Synergy; excitation wavelength: 490 nm, emission wavelength: 520 nm). The concentration of FITC-dextran in the samples was calculated by comparing the relative fluorescence values to the FITC-dextran standard curve. The apparent permeability coefficient (Papp, cm/s) was calculated according to Eq. 1. Papp=dQ/dt×1/(A×C0), (1) Where dQ/dt is the drug permeation rate (μg/s); a is the surface area of the inserts (cell monolayer) (cm^2); and C0 is the initial concentration at the apical side (μg/ml).

Caco-2 monolayers [15] = assay: Transepithelial electrical resistance (TEER) of Caco-2 monolayers; format: cell-based, human; details: for Change in TEER values after 1 h treatment with CPPs: Caco-2 monolayers differentiated 21 days, each CPP at a concentration without cytotoxicity, 37 °C, n = 3, p < 0.01 vs no treatment; for Reduction in TEER: Caco-2 monolayers, CPP 100 µM
Procedure: Transepithelial electrical resistance (TEER) represents the barrier integrity and permeability of the Caco-2 monolayers. To measure TEER, cells were seeded and grown on 12-well cell culture inserts ([…], 1.1 cm, polyethylene terephthalate membrane, cellQART) for a period of 21 days. TEER was measured using Millicell® ERS-2 Voltohmeter (MERS00002), combined with a STX-04 electrode. Final TEER values were expressed relative to the surface area of the inserts (ΩTotal - ΩInsert X cm^2). TEER values were monitored every day from day 14 until day 21, before, and after permeability experiments. On day 21 of differentiation, TEER values of the monolayers were 600 ± 50 Ω X cm^2 (mean ± SD; n = 48).
as §4

Saccharomyces cerevisiae = system: Saccharomyces cerevisiae; design: method as in Palm et al in 2006; details: ref Palm et al in 2006; cited from earlier work
[16] = rats, without damaging the epithelial barrier integrity, ref Kamei et al., 2008, Morishita et al., Bocsik et al., 2019; cited from earlier work
Procedure: as §3

CC(C)C[C@H](NC(=O)[C@H](C)NC(=O)[C@H](CCCCN)NC(=O)[C@H](CC(C)C)NC(=O)[C@H](C)NC(=O)[C@H](CC(C)C)NC(=O)[C@H](CCCCN)NC(=O)[C@H](CC(C)C)NC(=O)[C@H](C)NC(=O)[C@H](CC(C)C)NC(=O)[C@@H](N)CCCCN)C(=O)N[C@@H](CCCCN)C(=O)N[C@@H](C)C(=O)N[C@@H](C)C(=O)N[C@@H](CC(C)C)C(=O)N[C@@H](CCCCN)C(=O)N[C@@H](CC(C)C)C(=O)N[C@@H](C)C(N)=O [PN159]
Minimum inhibitory concentration (MIC) [1]: 10 µM
Minimum inhibitory concentration (MIC) [2]: 1 µM
Minimum inhibitory concentration (MIC) [3]: 5 µM
Minimum inhibitory concentration (MIC) [4]: 1 µM
Minimum inhibitory concentration (MIC) [5]: 5 µM
Minimum inhibitory concentration (MIC) [6]: 10 µM
Minimum inhibitory concentration (MIC) [7]: 1 µM
Minimum inhibitory concentration (MIC) [8]: 10 µM
Minimum inhibitory concentration (MIC) [9]: 50 µM
Paracellular permeability of Caco-2 monolayers via tight junction modulation (Caco-2 monolayers [10]; CPP 3 µM, ref Bocsik et al in 2019): significantly improve paracellular permeability of Caco-2 monolayers
Cytotoxicity (Cytotox Red dye staining, dead cells) (Caco-2 cells [11]): toxic at 5 µM; also recorded: Toxicity from 5 μM
Cell viability (AlamarBlue, % live cells vs control) (Caco-2 cells [12]): no significant toxic effect; also recorded: no significant effect on cell viability
MICs over the totally inhibited strains of the panel [13]: 1 to 50 µM
Paracellular permeability of FITC-dextran (Papp A-B) (Caco-2 monolayers [14]): highest paracellular permeability

KWFKIQMQIRRWKNKR [Penetramax]
Minimum inhibitory concentration (MIC) [2]: 100 µM
Minimum inhibitory concentration (MIC) [4]: 10 µM
Minimum inhibitory concentration (MIC) [7]: 100 µM
Cytotoxicity (Cytotox Red dye staining, dead cells) (Caco-2 cells [11]): significant toxicity only at the highest concentration tested (100 µM)
Cell toxicity and viability (Caco-2 cells [12]): without having significant effects on cell toxicity and viability
Paracellular permeability of FITC-dextran (Papp A-B) (Caco-2 monolayers [14]): highest paracellular permeability

LLIILRRRIRKQAHAHSK [pVEC, Protein derived cell-penetrating peptide]
Change in TEER values after 1 h treatment with CPPs (Caco-2 monolayers [15]): significant reduction in TEER values
Paracellular permeability (TEER and FITC-dextran assays collectively) (Caco-2 monolayers [14]): did not exhibit paracellular permeability
Concentration without inhibition of growth (Saccharomyces cerevisiae): > 25 µM

RQIKIWFQNRRMKWKK [Penetratin, Protein derived cell-penetrating peptide]
Paracellular permeability of Caco-2 monolayers (Caco-2 monolayers [10]): did not improve paracellular permeability
Change in TEER values after 1 h treatment with CPPs (Caco-2 monolayers [15]): significant reduction in TEER values
Permeabilizing effect in the Caco-2 monolayer setup (Caco-2 monolayers [14]): no permeabilizing effect
Paracellular permeability (TEER and FITC-dextran assays collectively) (Caco-2 monolayers [14]): did not exhibit paracellular permeability
Concentration without inhibition of growth (Saccharomyces cerevisiae): > 25 µM

RRLRRLLRRLRRLLRRLR [RRL helix]
Minimum inhibitory concentration (MIC) [2]: 50 µM
Minimum inhibitory concentration (MIC) [4]: 5 µM
Minimum inhibitory concentration (MIC) [7]: 10 µM
Minimum inhibitory concentration (MIC) [8]: 100 µM
Minimum inhibitory concentration (MIC) [9]: 50 µM
Cytotoxicity (Cytotox Red dye staining, dead cells) (Caco-2 cells [11]): toxic at 5 µM; also recorded: Toxicity from 5 μM
Cell viability (AlamarBlue, % live cells vs control) (Caco-2 cells [12]): no significant toxic effect
MICs over the totally inhibited strains of the panel [13]: 5 to 100 µM
Paracellular permeability of FITC-dextran (Papp A-B) (Caco-2 monolayers [14]): highest paracellular permeability

RRRRRRRR [R8, Synthetic oligoarginine cell-penetrating peptide]
Intestinal absorption of therapeutic peptides [16]: effective tools at improving intestinal absorption of therapeutic peptides
Reduction in TEER (Caco-2 monolayers [15]): did not observe reduction in TEER
FITC-dextran translocation (Caco-2 monolayers [14]): did not observe reduction in TEER or elevated FITC-dextran translocation
Paracellular permeability (TEER and FITC-dextran assays collectively) (Caco-2 monolayers [14]): did not exhibit paracellular permeability

RRRRRRRRR [R9, Synthetic oligoarginine cell-penetrating peptide]
Intestinal absorption of therapeutic peptides [16]: effective tools at improving intestinal absorption of therapeutic peptides
Reduction in TEER (Caco-2 monolayers [15]): did not observe reduction in TEER
FITC-dextran translocation (Caco-2 monolayers [14]): did not observe reduction in TEER or elevated FITC-dextran translocation
Paracellular permeability (TEER and FITC-dextran assays collectively) (Caco-2 monolayers [14]): did not exhibit paracellular permeability

RWFKIQMQIRRWKNKK [Shuffle]
Minimum inhibitory concentration (MIC) [2]: 100 µM
Minimum inhibitory concentration (MIC) [4]: 10 µM
Minimum inhibitory concentration (MIC) [7]: 50 µM
Cytotoxicity (Cytotox Red dye staining, dead cells) (Caco-2 cells [11]): significant toxicity only at the highest concentration tested (100 µM)
Cell toxicity and viability (Caco-2 cells [12]): without having significant effects on cell toxicity and viability
Paracellular permeability of FITC-dextran (Papp A-B) (Caco-2 monolayers [14]): highest paracellular permeability

YGRKKRRQRRR [Tat]
Permeabilizing effect in the Caco-2 monolayer setup (Caco-2 monolayers [14]): no permeabilizing effect
Paracellular permeability (TEER and FITC-dextran assays collectively) (Caco-2 monolayers [14]): did not exhibit paracellular permeability

From publication PMC9666501, “Screening for effective cell-penetrating peptides with minimal impact on epithelial cells and gut commensals in vitro” (Frontiers in Pharmacology, 2022)
